Assay results: patent US8889156B2, “Calcium-binding agents induce hair growth and/or nail growth” (priority 2009, dated 2014)
Read-outs that look alike come from different tables or passages of the source. Square brackets hold non-standard residues; d marks the D form. Ends that are not written are not given here. pS = N[C@@H](COP(=O)(O)O)C(=O)O

Legend:
[1] = HA binding assay (pulldown of fluorescein-labeled peptides, Langmuir isotherm fit); conditions: for Nmax (maximum monolayer surface concentration) / KA (binding affinity for HA): fit of Langmuir equation; for KA (binding affinity for HA): fluorescein-labeled peptide 0-100 μM, 0.3 mg HA nanocrystals
Procedure: Fluorescein-labeled DSS-containing peptides of various lengths were subjected to pulldown assays as follows: Samples containing varying concentrations of fluorescein-labeled peptide (0-100 μM) and a fixed amount (0.3 mg) of HA nanocrystals with a specific surface area of 100 m^2/g (Berkeley Advanced Biomaterials, Berkeley, Calif.) were prepared. Measurements were taken of the absorbance of the labeled peptide at 488 nm (the peak absorbance of the fluorescein label) before and after exposure to the HA. The amount of peptide bound was calculated by comparing the ratio of the final (Af) and initial (Ai) absorbances to the initial concentration (C0) [Cbound=(Af/Ai)C0]. Plots were generated of the amount of peptide bound per meter squared of HA surface area vs. concentration of unbound peptide at equilibrium. The resulting isotherms were fit to the Langmuir isotherm, x/m=(KANmaxCeq)/(1+KACeq), where x/m represents the molar amount of peptide bound per unit of HA surface area, KA is the affinity constant of the peptide for the HA surface (L/Mol), Nmax is the maximum surface concentration (mol/m^2), and Ceq is the molar concentration of unbound peptide at equilibrium (Calis et al. (1995) Pharm Res., 12: 1072-1076).
In order to quantitatively assess the strength of the DSS-HA interaction as well as to determine the roles of peptide length and sequence on binding, fluorescein-labeled, DSS-containing peptides of various lengths were subjected to pulldown assays as described in “Materials and Methods.”
The experimental data were fit to the Langmuir isotherm, which describes the binding of molecules to surfaces with the conditions that (1) all binding sites have the same affinity for the peptide and (2) the peptide will form a monolayer on the surface but cannot accumulate to higher levels (Atkins (1994) Physical chemistry. Freeman, New York). The excellent fit of the Langmuir isotherm to the experimental data validates these conditions, and the constants obtained from this analysis were used for comparisons between peptides. As shown in FIG. 7A and summarized in Table 6, both the binding affinity (KA) and the monolayer concentration (NMax) of the various peptides increased with the number of DSS repeats per peptide. Additionally, several variant peptides were tested (FIGS. 7B, 7C, Table 6): a peptide containing a longer side chain at the first position (4ESS (SEQ ID NO:34)), peptides containing a more sterically hindered hydroxyl group at the second and third positions (4DTT (SEQ ID NO:36), 4NTT (SEQ ID NO:38), 4ETT (SEQ ID NO:37)), peptides lacking a charged group at the first position (4NSS (SEQ ID NO:35), 8ASS (SEQ ID NO:26)), and peptides lacking hydroxyl groups at the second and third positions (DAA-8 (SEQ ID NO:40), 8NAA (SEQ ID NO:41)).

[2] = Binding of labeled peptides to carious lesions in teeth (CLSM); set-up: species or system human; conditions: labeled peptide, settings optimized per sample
From the text: Sections of human teeth containing obvious carious lesions, which consist of demineralized enamel, were polished and exposed to 5(6)-carboxyfluorescein-labeled DSS peptides and variants. The sections were washed extensively and imaged by CLSM using blue laser illumination (A=488 nm) and a FITC emission filter, with microscope and camera settings adjusted for each sample to optimize the signal detected from each peptide. The images were examined to identify the relative levels of peptide binding in healthy versus carious tissue. […] Given their ability to remineralize at sites of enamel degradation, they can also be used to initiate remineralization at sites of enamel degradation such as caries or injury sites without causing inappropriate nucleation on healthy tissue surfaces.

[3] = Tissue specific binding of labeled peptides to sections of human teeth (CLSM); conditions: 5(6)-carboxyfluorescein-labeled peptide, ten minutes; for level of binding (staining) to tooth surfaces: identical settings
From the text: In order to investigate the tissue specificity of DSS peptide binding to tooth tissue, sections of human teeth were exposed to DSS peptides and variants, then imaged by CLSM. The peptides utilized for these experiments were 8DSS (SEQ ID NO:33), 8ASS (SEQ ID NO:26), 8DAA (SEQ ID NO:40), 8NAA (SEQ ID NO:41), 4DSS (SEQ ID NO:31), 4ESS (SEQ ID NO:34), 4NSS (SEQ ID NO:35), 4DTT (SEQ ID NO:36), 4ETT (SEQ ID NO:37), 4NTT (SEQ ID NO:38), and 6DSS (SEQ ID NO:32). Sagittal sections of human teeth extracted during normal clinical practice were polished and then incubated for ten minutes in a solution of the appropriate 5(6) carboxyfluorescein-labeled peptide (12.5pM) containing 10 mM NaCl and 50 mM HEPES, pH 7.0. Control samples were prepared without peptide. Samples were washed extensively after treatment and imaged by CLSM using blue laser illumination (A=488 nm) and a FITC emission filter, with identical camera and microscope settings for each sample. For each section, multiple scans were collected and assembled in an automated mode to generate panels of images representing an area of 13×13 mm, sufficient in most cases to encompass the whole section. […] Significant binding was also seen to the edges of the pulp cavity.

[4] = system: Streptococcus mutans strain UA159; type: cell-based
Procedure: The sequences of these fusion proteins are […] NO:24), and […] NO:25) (see SEQ ID NOs:27-29, respectively in WO 2007/038683). The antimicrobial activity of these peptides against anaerobic planktonic bacteria was determined by a modification of a previously described assay. Briefly, Streptococcus mutans strain UA159 cells were diluted to -1×10^5 cfu/mL in Todd-Hewitt (TH) broth medium and mixed with either suspended hydroxyapatite nanocrystals (Berkeley Advanced Biomaterials, Inc., 0.03% w/v) or, for control samples, an equivalent volume of deionized water. Aliquots were transferred into 96-well plates (Fisher). Serial dilutions of the peptides were then made and added to the bacteria. […] Nonetheless, some antimicrobial activity is retained by this peptide.

| Substance | Nmax (maximum monolayer surface concentration) [1] | KA (binding affinity for HA) [1] | effect of sequence variation on binding affinity (KA) relative to DSS peptide of same size ([1]; in words) | level of binding (staining) to tooth surfaces [3] | specificity of binding to carious lesions versus healthy enamel [2] | tissue pattern of binding in the tooth section [3] | further results |
| --- | --- | --- | --- | --- | --- | --- | --- |
| 4DS(P)S: phosphorylated DSS repeat peptide of the same size as 4DSS, SEQ ID NO:4 (D[pS]SD[pS]SD[pS]SD[pS]S) | 1.2 × 10^−7 ± 5 × 10^−9 mol/m^2 | 83,000 ± 9,000 M^−1 | did not lead to a significant change in binding affinity |  |  |  | surface binding density relative to unphosphorylated peptide ([1]; in words): large increase in the surface binding density |
| 4NAA: printed once with SEQ ID NO:44; not among the synthesized peptides, probably a misprint (NAANAANAANAA; synthetic calcium-binding peptide 4NAA) |  |  |  |  |  |  | strength of staining of carious lesions [2]: exceptionally strong staining of carious lesions |
| 5DSS: peptide of five Asp-Ser-Ser repeats, SEQ ID NO:22 (DSSDSSDSSDSSDSS; synthetic calcium-binding peptide 5DSS, (DSS)-5) | 9.2 × 10^−8 ± 2 × 10^−9 mol/m^2 | 148,000 ± 14,000 M^−1 |  |  |  |  |  |
| ASS ASS ASS ASS ASS ASS ASS ASS (ASSASSASSASSASSASSASSASS; synthetic calcium-binding peptide 8ASS) |  |  | significant loss of binding affinity | lower levels of binding | highly specific binding to carious lesions |  | strength of staining of carious lesions [2]: exceptionally strong staining of carious lesions |
| DAA DAA DAA DAA DAA DAA DAA DAA (DAADAADAADAADAADAADAADAA; synthetic calcium-binding peptide 8DAA) | 6.0 × 10^−8 ± 6 × 10^−9 mol/m^2 | 310,000 ± 74,000 M^−1 |  |  | highly specific binding to carious lesions | primary binding to the root tip dentin and cortical enamel | effect of sequence variation on binding affinity (KA) relative to DSS peptide of same size ([1]; in words, listed as DAA8): little observable effect; effect of sequence variation on binding affinity (KA) relative to DSS peptide of same size ([1]; in words, listed as DAA-8): within experimental error of the KA for 8DSS; strength of staining of carious lesions [2]: exceptionally strong staining of carious lesions |
| DSS DSS (DSSDSS; synthetic calcium-binding peptide 2DSS) | 2 × 10^−8 ± 5 × 10^−9 mol/m^2 | 57,000 ± 24,000 M^−1 |  |  |  |  |  |
| DSS DSS DSS DSS (DSSDSSDSSDSS; synthetic calcium-binding peptide 4DSS) | 5.8 × 10^−8 ± 6 × 10^−9 mol/m^2 | 94,000 ± 26,000 M^−1 |  |  | highly specific binding to carious lesions | bound primarily to the mantle dentin | strength of staining of carious lesions [2]: exceptionally strong staining of carious lesions |
| DSSDSSDSSDSSGGGRWRWRWF [4DSS-2c4, DSS DSS DSS DSS GGG RWRWRWF] |  |  |  |  |  |  | MIC ([4]; planktonic S. mutans, with 0.03% (w/v) hydroxyapatite, approximately 24 hours): unaffected; MIC ([4]; strain UA159, 24 h): 52.5 |
| DTT DTT DTT DTT (DTTDTTDTTDTT; synthetic calcium-binding peptide 4DTT) | 1.3 × 10^−8 ± 1 × 10^−9 mol/m^2 | 161,000 ± 79,000 M^−1 | little observable effect | sharply reduced levels |  | binding patterns similar to those of 4DSS |  |
| ESS ESS ESS ESS (ESSESSESSESS; synthetic calcium-binding peptide 4ESS) | 4.6 × 10^−8 ± 4 × 10^−9 mol/m^2 | 81,000 ± 18,000 M^−1 |  | lower levels of binding | highly specific binding to carious lesions |  | strength of staining of carious lesions [2]: exceptionally strong staining of carious lesions |
| ETT ETT ETT ETT (ETTETTETTETT; synthetic calcium-binding peptide 4ETT) | 8.8 × 10^−8 ± 9 × 10^−9 mol/m^2 | 79,000 ± 25,000 M^−1 | little observable effect | sharply reduced levels | highly specific binding to carious lesions | binding patterns similar to those of 4DSS |  |
| FHFHLHF [PL-135, FHFHLHF, reference compound] |  |  |  |  |  |  | MIC ([4]; strain UA159, 24 h): 21 |
| LKRFLKWFKRF [b-34, LKRF LKWF KRF, reference compound] |  |  |  |  |  |  | MIC ([4]; strain UA159, 24 h): 5.6 |
| NAANAANAANAANAANAANAANAA [8NAA] |  |  |  | very little binding to any healthy tissue | highly specific binding to carious lesions | did bind somewhat to a carious lesion | HA binding activity ([1]; in words): near-total loss of binding activity |
| NSS NSS NSS NSS (NSSNSSNSSNSS; synthetic calcium-binding peptide 4NSS) | 3.0 × 10^−8 ± 1 × 10^−9 mol/m^2 | 16,000 ± 4,000 M^−1 | significant loss of binding affinity | lower levels of binding | highly specific binding to carious lesions |  |  |
| NTT NTT NTT NTT (NTTNTTNTTNTT; synthetic calcium-binding peptide 4NTT) | 5.8 × 10^−8 ± 2 × 10^−8 mol/m^2 | 17,000 ± 7,000 M^−1 | significant loss of binding affinity | very low levels of binding to the healthy tooth tissue |  | strong binding to a fragment of periodontal bone | HA binding activity ([1]; in words): near-total loss of binding activity |
| RWRWRWF [2c-4, RWRWRWF, reference compound] |  |  |  |  |  |  | MIC ([4]; strain UA159, 24 h): 2 |
